Converted amounts (≈) assume the structure as drawn.
Assays:
Assay type in all cases: functional, cell-based
[1] = tested on: MOLT-3; experiment: Cytotoxicity against Homo sapiens (human) MOLT3 cells assessed as survival after 3 days by crystal violet staining; conditions: MOLT-3, 72 h
[2] = Cytotoxicity against Homo sapiens (human) HuCCa1 cells assessed as survival after 3 days by crystal violet staining; conditions: HuCC-A1, 72 h
[3] = tested on: HepG2; experiment: Cytotoxicity against Homo sapiens (human) HepG2 cells assessed as survival after 3 days by crystal violet staining; conditions: HepG2, 72 h
[4] = tested on: A549; experiment: Cytotoxicity against Homo sapiens (human) A549 cells assessed as survival after 3 days by crystal violet staining; conditions: A549, 72 h

Row | SMILES | IC50 [1] [µg/mL] | IC50 [2] [µg/mL] | IC50 [3] [µg/mL] | IC50 [4] [µg/mL]
1 | NC(=S)N/N=C(/c1ccccc1)c1nccc2ccccc12 | 0.72 (≈ 2.35 µM) | 35 (≈ 114 µM) | 16 (≈ 52.2 µM) | 30 (≈ 97.9 µM)
2 | C/C(=N\NC(N)=S)C1c2ccccc2CCN1S(=O)(=O)c1cccc([N+](=O)[O-])c1 (centres undefined) | 18.1 (≈ 41.7 µM) | > 50 | 38.5 (≈ 88.8 µM) | > 50
3 | COc1ccc(S(=O)(=O)N2CCc3ccccc3C2/C(C)=N/NC(N)=S)cc1 (centres undefined) | 15.6 (≈ 37.2 µM) | > 50 | 33.5 (≈ 80 µM) | > 50
4 | C/C(=N\NC(N)=S)C1c2ccccc2CCN1S(=O)(=O)c1ccc([N+](=O)[O-])cc1 (centres undefined) | 18.2 (≈ 42.1 µM) | > 50 | 32.3 (≈ 74.6 µM) | > 50
5 | COc1ccc(S(=O)(=O)N2CCc3cc(OC)c(OC)cc3C2/C(C)=N/NC(N)=S)cc1 (centres undefined) | 2.13 (≈ 4.45 µM) | 31 (≈ 64.8 µM) | 10.5 (≈ 21.9 µM) | > 50
6 | C/C(=N\NC(N)=S)C1c2ccccc2CCN1S(=O)(=O)c1ccc(C)cc1 (centres undefined) | 19 (≈ 47.2 µM) | > 50 | 46 (≈ 114 µM) | > 50
7 | COc1cc2c(cc1OC)C(/C(C)=N/NC(N)=S)N(S(=O)(=O)c1ccc([N+](=O)[O-])cc1)CC2 (centres undefined) | 42.3 (≈ 85.7 µM) | > 50 | > 50 | > 50
8 | COc1cc2c(cc1OC)C(/C(C)=N/NC(N)=S)N(S(=O)(=O)c1ccc(C)cc1)CC2 (centres undefined) | > 50 | > 50 | > 50 | > 50
9 | COc1ccc(S(=O)(=O)N2CCc3ccccc3C2/C(=N/NC(N)=S)c2ccccc2)cc1 (centres undefined) | 8.44 (≈ 17.6 µM) | > 50 | > 50 | > 50
10 | Cc1ccc(S(=O)(=O)N2CCc3ccccc3C2/C(=N/NC(N)=S)c2ccccc2)cc1 (centres undefined) | 7.85 (≈ 16.9 µM) | > 50 | > 50 | > 50
11 | NC(=S)N/N=C(\c1ccccc1)C1c2ccccc2CCN1S(=O)(=O)c1ccc([N+](=O)[O-])cc1 (centres undefined) | 11.3 (≈ 22.7 µM) | > 50 | > 50 | > 50
12 | COc1cc2c(cc1OC)C(/C(=N/NC(N)=S)c1ccccc1)N(S(=O)(=O)c1ccc(Cl)cc1)CC2 (centres undefined) | 5.03 (≈ 9.23 µM) | > 50 | > 50 | > 50
13 | COc1ccc(S(=O)(=O)N2CCc3cc(OC)c(OC)cc3C2/C(=N/NC(N)=S)c2ccccc2)cc1 (centres undefined) | 10.4 (≈ 19.3 µM) | > 50 | > 50 | > 50
14 | COc1cc2c(cc1OC)C(C(=O)c1ccccc1)N(S(=O)(=O)c1ccc(C)cc1)CC2 (centres undefined) | > 50 | > 50 | > 50 | > 50
15 | COc1cc2c(cc1OC)C(/C(=N/NC(N)=S)c1ccccc1)N(S(=O)(=O)c1ccc([N+](=O)[O-])cc1)CC2 (centres undefined) | > 50 | > 50 | > 50 | > 50
16 | COc1cc2c(cc1OC)C(/C(=N/NC(N)=S)c1ccccc1)N(S(=O)(=O)c1ccc(C)cc1)CC2 (centres undefined) | 8.45 (≈ 16.1 µM) | > 50 | 21.5 (≈ 41 µM) | > 50
17 | COc1cccc2c1C(=O)c1c(O)c3c(c(O)c1C2=O)C[C@@](O)(C(=O)CO)C[C@@H]3O[C@H]1C[C@H](N)[C@H](O)[C@H](C)O1 [DOXORUBICIN] | – | 0.35 (≈ 0.644 µM) | 0.23 (≈ 0.423 µM) | 0.38 (≈ 0.699 µM)
18 | COc1cc([C@@H]2c3cc4c(cc3[C@@H](O[C@@H]3O[C@@H]5CO[C@@H](C)O[C@H]5[C@H](O)[C@H]3O)[C@H]3COC(=O)[C@H]23)OCO4)cc(OC)c1O [ETOPOSIDE] | 0.024 (≈ 0.0408 µM) | – | 16 (≈ 27.2 µM) | –

Reference: ChEMBL document CHEMBL3044739, “Synthesis and cytotoxicity of novel N-sulfonyl-1,2,3,4-tetrahydroisoquinoline thiosemicarbazone derivatives” (Med Chem Res, 2013)
